{"source": "paper PMC8330742", "about": "“New benzothieno[2,3-c]pyridines as non-steroidal CYP17 inhibitors: design, synthesis, anticancer screening, apoptosis induction, and in silico ADME profile studies” (Journal of Enzyme Inhibition and Medicinal Chemistry, 2021)", "assay_in_all_cases": "NCI-60 SRB screen;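 as to IC50: half-maximal inhibitory concentration read as cell viability unlike GI50 net growth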", "key": {"[1]": {"system": "HCT-116", "type": "cell-based, human", "conditions": "HCT-116"}, "[2]": {"system": "NCI/ADR-RES", "type": "cell-based, human"}, "[3]": {"system": "M14", "type": "cell-based, human", "conditions": "M14"}, "[4]": {"system": "UACC-257", "type": "cell-based, human", "conditions": "UACC-257"}, "[5]": {"system": "EKVX", "type": "cell-based, human"}, "[6]": {"system": "HOP-62", "type": "cell-based, human", "conditions": "HOP-62"}, "[7]": {"system": "HOP-92", "type": "cell-based, human", "conditions": "HOP-92"}, "[8]": {"system": "OVCAR-4", "type": "cell-based, human", "conditions": "OVCAR-4"}, "[9]": {"system": "SW-620", "type": "cell-based", "conditions": "SW-620"}, "[10]": {"system": "CAKI-1", "type": "cell-based, human", "conditions": "CAKI-1"}, "[11]": {"system": "SK-OV-3", "type": "cell-based, human", "conditions": "SK-OV-3"}, "[12]": {"system": "RXF 393", "type": "cell-based, human", "conditions": "RXF 393"}, "[13]": {"system": "NCI-H226", "type": "cell-based, human", "conditions": "NCI-H226"}, "[14]": {"system": "IGROV1", "type": "cell-based, human", "conditions": "IGROV1"}, "[15]": {"system": "SK-MEL-28", "type": "cell-based", "conditions": "SK-MEL-28"}, "[16]": {"system": "LOX IMVI", "type": "cell-based, human"}, "[17]": {"system": "A549/ATCC", "type": "cell-based, human"}, "[18]": {"system": "CCRF-CEM", "type": "cell-based"}, "[19]": {"system": "SF-268", "type": "cell-based, human", "conditions": "SF-268"}, "[20]": {"system": "MALME-3M", "type": "cell-based, human"}, "[21]": {"system": "NCI-H460", "type": "cell-based, human", "conditions": "NCI-H460"}, "[22]": {"system": "UACC-62", "type": "cell-based, human", "conditions": "Homo sapiens, UACC-62"}, "[23]": {"conditions": "Homo sapiens, single dose 10^−5 M, read-out: Growth inhibition (%)"}, "[24]": {"conditions": "Homo sapiens, IGROV-1, five dose"}}}
{"smiles": "N#CC1C(=O)NC(c2ccccc2[N+](=O)[O-])c2sc3c(F)cccc3c21", "note": "(stereo not drawn) [Compound 5c, 4-Cyano-8-fluoro-1-(2-nitrophenyl)-1,2-dihydro[1]benzothieno[2,3-c] pyridin-3(4H)-one]", "values": [{"measurement": "TGI", "setting": "[1]; five dose", "value": 44.50, "unit": "µM"}, {"measurement": "GI50", "setting": "[1]; Homo sapiens, five dose", "value": 140, "unit": "nM"}, {"measurement": "IC50", "setting": "[1]; Homo sapiens, five dose", "value": 195, "unit": "nM"}, {"measurement": "inhibition at 10 µM", "setting": "[1]; [23]", "value": 89, "unit": "%"}, {"measurement": "GI50", "setting": "[2]; Homo sapiens, five dose", "value": 8.21, "unit": "µM"}, {"measurement": "IC50", "setting": "[2]; Homo sapiens, five dose", "value": 16.6, "unit": "µM"}, {"measurement": "inhibition at 10 µM", "setting": "[2]; [23]", "value": 31.5, "unit": "%"}, {"measurement": "TGI", "setting": "[2]; five dose", "value": 100, "unit": "µM"}, {"measurement": "GI50", "setting": "[3]; Homo sapiens, five dose", "value": 16.3, "unit": "µM"}, {"measurement": "IC50", "setting": "[3]; Homo sapiens, five dose", "value": 28.2, "unit": "µM"}, {"measurement": "inhibition at 10 µM", "setting": "[3]; [23]", "value": 7.3, "unit": "%"}, {"measurement": "TGI", "setting": "[3]; five dose", "value": 100, "unit": "µM"}, {"measurement": "inhibition at 10 µM", "setting": "[4]; Homo sapiens, UACC-275 (so in the source), single dose 10^−5 M, read-out: Growth inhibition (%)", "value": 137, "unit": "%"}, {"measurement": "GI50", "setting": "[4]; Homo sapiens, five dose", "value": 1730, "unit": "nM"}, {"measurement": "IC50", "setting": "[4]; Homo sapiens, five dose", "value": 5.89, "unit": "µM"}, {"measurement": "TGI", "setting": "[4]; five dose", "value": 100, "unit": "µM"}, {"measurement": "GI50", "setting": "[5]; Homo sapiens, five dose", "value": 2690, "unit": "nM"}, {"measurement": "IC50", "setting": "[5]; Homo sapiens, five dose", "value": 13.8, "unit": "µM"}, {"measurement": "inhibition at 10 µM", "setting": "[5]; [23]", "value": 35.3, "unit": "%"}, {"measurement": "TGI", "setting": "[5]; five dose", "value": 100, "unit": "µM"}, {"measurement": "TGI", "setting": "[6]; five dose", "value": 100, "unit": "µM"}, {"measurement": "GI50", "setting": "[6]; Homo sapiens, five dose", "value": 10, "unit": "µM"}, {"measurement": "IC50", "setting": "[6]; Homo sapiens, five dose", "value": 22.9, "unit": "µM"}, {"measurement": "inhibition at 10 µM", "setting": "[6]; [23]", "value": 66.3, "unit": "%"}, {"measurement": "TGI", "setting": "[7]; five dose", "value": 100, "unit": "µM"}, {"measurement": "GI50", "setting": "[7]; Homo sapiens, five dose", "value": 12.6, "unit": "µM"}, {"measurement": "IC50", "setting": "[7]; Homo sapiens, five dose", "value": 79.4, "unit": "µM"}, {"measurement": "inhibition at 10 µM", "setting": "[7]; [23]", "value": 115, "unit": "%"}, {"measurement": "GI50", "setting": "[8]; Homo sapiens, five dose", "value": 1610, "unit": "nM"}, {"measurement": "IC50", "setting": "[8]; Homo sapiens, five dose", "value": 24.5, "unit": "µM"}, {"measurement": "inhibition at 10 µM", "setting": "[8]; [23]", "value": 100, "unit": "%"}, {"measurement": "TGI", "setting": "[8]; five dose", "value": 100, "unit": "µM"}, {"measurement": "GI50", "setting": "[9]; Homo sapiens, five dose", "value": 370, "unit": "nM"}, {"measurement": "IC50", "setting": "[9]; Homo sapiens, five dose", "value": 676, "unit": "nM"}, {"measurement": "LC50 (50% lethal concentration)", "setting": "[9]; Homo sapiens, five dose", "value": "> 100", "unit": "µM"}, {"measurement": "inhibition at 10 µM", "setting": "[9]; [23]", "value": 88.1, "unit": "%"}, {"measurement": "TGI", "setting": "[9]; five dose", "value": 100, "unit": "µM"}, {"measurement": "TGI", "setting": "[10]; five dose", "value": 100, "unit": "µM"}, {"measurement": "GI50", "setting": "[10]; Homo sapiens, five dose", "value": 170, "unit": "nM"}, {"measurement": "IC50", "setting": "[10]; Homo sapiens, five dose", "value": 562, "unit": "nM"}, {"measurement": "inhibition at 10 µM", "setting": "[10]; [23]", "value": 94.7, "unit": "%"}, {"measurement": "GI50", "setting": "[11]; Homo sapiens, five dose", "value": 12, "unit": "µM"}, {"measurement": "IC50", "setting": "[11]; Homo sapiens, five dose", "value": 44.7, "unit": "µM"}, {"measurement": "inhibition at 10 µM", "setting": "[11]; [23]", "value": 28.2, "unit": "%"}, {"measurement": "TGI", "setting": "[11]; five dose", "value": 100, "unit": "µM"}, {"measurement": "GI50", "setting": "[12]; Homo sapiens, five dose", "value": 11.3, "unit": "µM"}, {"measurement": "IC50", "setting": "[12]; Homo sapiens, five dose", "value": 37.2, "unit": "µM"}, {"measurement": "inhibition at 10 µM", "setting": "[12]; [23]", "value": 30.1, "unit": "%"}, {"measurement": "TGI", "setting": "[12]; five dose", "value": 100, "unit": "µM"}, {"measurement": "GI50", "setting": "[13]; Homo sapiens, five dose", "value": 270, "unit": "nM"}, {"measurement": "IC50", "setting": "[13]; Homo sapiens, five dose", "value": 871, "unit": "nM"}, {"measurement": "inhibition at 10 µM", "setting": "[13]; [23]", "value": 31.2, "unit": "%"}, {"measurement": "TGI", "setting": "[13]; five dose", "value": 100, "unit": "µM"}, {"measurement": "GI50", "setting": "[14]; [24]", "value": 4, "unit": "nM"}, {"measurement": "IC50", "setting": "[14]; [24]", "value": 178, "unit": "nM"}, {"measurement": "inhibition at 10 µM", "setting": "[14]; Homo sapiens, IGROV-1, single dose 10^−5 M, read-out: Growth inhibition (%)", "value": 99.7, "unit": "%"}, {"measurement": "TGI", "setting": "[14]; five dose", "value": 100, "unit": "µM"}, {"measurement": "GI50", "setting": "[15]; Homo sapiens, five dose", "value": 31.2, "unit": "µM"}, {"measurement": "IC50", "setting": "[15]; Homo sapiens, five dose", "value": 66.1, "unit": "µM"}, {"measurement": "LC50 (50% lethal concentration)", "setting": "[15]; Homo sapiens, five dose", "value": "> 100", "unit": "µM"}, {"measurement": "inhibition at 10 µM", "setting": "[15]; [23]", "value": -10.6, "unit": "%"}, {"measurement": "TGI", "setting": "[15]; five dose", "value": 100, "unit": "µM"}, {"measurement": "GI50", "setting": "[16]; Homo sapiens, five dose", "value": 15.3, "unit": "µM"}, {"measurement": "IC50", "setting": "[16]; Homo sapiens, five dose", "value": 25.1, "unit": "µM"}, {"measurement": "inhibition at 10 µM", "setting": "[16]; [23]", "value": 8.64, "unit": "%"}, {"measurement": "TGI", "setting": "[16]; five dose", "value": 73.20, "unit": "µM"}, {"measurement": "GI50", "setting": "[17]; Homo sapiens, five dose", "value": 1310, "unit": "nM"}, {"measurement": "IC50", "setting": "[17]; Homo sapiens, five dose", "value": 2340, "unit": "nM"}, {"measurement": "inhibition at 10 µM", "setting": "[17]; [23]", "value": 52.8, "unit": "%"}, {"measurement": "TGI", "setting": "[17]; five dose", "value": 100, "unit": "µM"}, {"measurement": "GI50", "setting": "[18]; Homo sapiens, five dose", "value": 26.3, "unit": "µM"}, {"measurement": "IC50", "setting": "[18]; Homo sapiens, five dose", "value": 37.2, "unit": "µM"}, {"measurement": "LC50", "setting": "[18]; Homo sapiens, five dose", "value": "> 100", "unit": "µM"}, {"measurement": "inhibition at 10 µM", "setting": "[18]; [23]", "value": 13.2, "unit": "%"}, {"measurement": "TGI", "setting": "[18]; five dose", "value": 100, "unit": "µM"}, {"measurement": "GI50", "setting": "[19]; Homo sapiens, five dose", "value": 16.4, "unit": "µM"}, {"measurement": "IC50", "setting": "[19]; Homo sapiens, five dose", "value": 46.8, "unit": "µM"}, {"measurement": "inhibition at 10 µM", "setting": "[19]; [23]", "value": 14.4, "unit": "%"}, {"measurement": "TGI", "setting": "[19]; five dose", "value": 100, "unit": "µM"}, {"measurement": "GI50", "setting": "[20]; Homo sapiens, five dose", "value": 22.6, "unit": "µM"}, {"measurement": "IC50", "setting": "[20]; Homo sapiens, five dose", "value": 83.2, "unit": "µM"}, {"measurement": "inhibition at 10 µM", "setting": "[20]; [23]", "value": 25.3, "unit": "%"}, {"measurement": "TGI", "setting": "[20]; five dose", "value": 100, "unit": "µM"}, {"measurement": "GI50", "setting": "[21]; Homo sapiens, five dose", "value": 290, "unit": "nM"}, {"measurement": "IC50", "setting": "[21]; Homo sapiens, five dose", "value": 372, "unit": "nM"}, {"measurement": "inhibition at 10 µM", "setting": "[21]; [23]", "value": 11.5, "unit": "%"}, {"measurement": "TGI", "setting": "[21]; five dose", "value": 100, "unit": "µM"}, {"measurement": "GI50", "setting": "[22]; five dose", "value": 360, "unit": "nM"}, {"measurement": "IC50", "setting": "[22]; five dose", "value": 1780, "unit": "nM"}, {"measurement": "inhibition at 10 µM", "setting": "[22]; single dose 10^−5 M, read-out: Growth inhibition (%)", "value": 90.6, "unit": "%"}]}
